Patent US10793525B2, “13-cis-RAMBA retinamides that degrade MNKs for treating cancer” (UNIVERSITY OF MARYLAND, BALTIMORE, priority 2014, dated 2020)
Read-outs that look alike come from different tables or passages of the source.

Key:
[1] = system: MCF-7 human breast cancer cells; assay: MTT cell proliferation assay, MCF-7; assay type: cell-based; settings: MCF-7 cells; for IC50: Homo sapiens, MCF7, MTT, SEM < 10%, read-out: GI50s MCF-7
Text: (§1) MCF-7, MDA-MB-231, MDA-MB-468 and SKBR-3 human breast cancer cells and LNCaP, PC-3, and CWR22Rv1 human prostate carcinoma cells (American Type Culture Collection, Manassas, Va., USA) were maintained in RPMI 1640 media (Gibco-Life Technologies, Grand Island, N.Y., USA) supplemented with 10% fetal bovine serum and 1% penicillin/streptomycin. Western blotting was done as mentioned previously,^8, 13b using the following antibodies: AR, Bad, Bax, Bcl-2, eIF4E, Mnk1, Mnk-2, N-cadherin, PARP, peIF4E^ser209 purchased from Cell Signaling Technology, Danvers, Mass., USA. Anti-Mnk2 was purchased from Sigma-Aldrich and normal rabbit IgG, cyclin D1 was from Santa Cruz Biotechnology, CA, USA.
(§2) Cells were plated (2500 cells/well) in 96 well plates and treated with or without specified compounds as described previously.^8a, 12b
(§3) The clinically relevant retinoids, ATRA and 4-HPR and the Mnk inhibitor, cercosporamide were used as comparators in the assays.

[2] = system: MDA-MB-231 human breast cancer cells; assay: MTT cell proliferation assay, MDA-MB-231; assay type: cell-based; settings: MDA-MB-231 cells, SEM < 10%, read-out: GI50s MDA-MB-231
Text: as §1, §2, §3

[3] = system: MDA-MB-468 human breast cancer cells; assay: MTT cell proliferation assay, MDA-MB-468; assay type: cell-based; settings: MDA-MB-468 cells, SEM < 10%, read-out: GI50s MDA-MB-468
Text: as §1, §2, §3

[4] = system: SKBR-3 human breast cancer cells; assay: MTT cell proliferation assay, SKBR-3; assay type: cell-based; settings: SK-BR-3, SKBR-3 cells, SEM < 10%, read-out: GI50s SKBR-3
Text: as §1, §2, §3

[5] = system: LNCaP human prostate carcinoma cells; assay: MTT cell proliferation assay, LNCaP; assay type: cell-based; settings: SEM < 10%, read-out: GI50s LNCaP
Text: as §1, §2, §3
(§4) The PC-3 cell line was the least sensitive to all the compounds tested.

[6] = system: CWR22Rv1 human prostate carcinoma cells; assay: MTT cell proliferation assay, CWR22Rv1; assay type: cell-based; settings: SEM < 10%, read-out: GI50s CWR22Rv1
Text: as §1, §2, §3, §4

[7] = system: PC-3 human prostate carcinoma cells; assay: MTT cell proliferation assay, PC-3; assay type: cell-based; settings: PC-3 cells, SEM < 10%, read-out: GI50s PC-3
Text: as §1, §2, §3, §4

[8] = system: LNCaP human prostate carcinoma cells; settings: previously reported in Ramamurthy V et al., read-out: GI50s LNCaP; cited from earlier work
[9] = system: CWR22Rv1 human prostate carcinoma cells; settings: previously reported in Ramamurthy V et al., read-out: GI50s CWR22Rv1; cited from earlier work
[10] = system: PC-3 human prostate carcinoma cells; settings: PC-3 cells; previously reported in Ramamurthy V et al.; read-out: GI50s PC-3; cited from earlier work
[11] = system: MCF-7, MDA-MB-231, MDA-MB-468 and SKBR-3 human breast cancer cells; assay: MTT cell proliferation assay, four breast cancer cell lines together; assay type: cell-based; settings: range across the four BC cell lines, read-out: GI50s, range over the BC cell lines
Text: as §1, §2, §3

Row | IC50 [1] [µM] | IC50 [2] [µM] | IC50 [3] [µM] | IC50 [4] [µM] | IC50 [5] [µM] | IC50 [6] [µM] | IC50 [7] [µM] | melting point [°C] | fold more potent than Compound 16 (GI50, MCF-7) ([1]; versus Compound 16) [fold] | IC50 [11] [µM] | Structure (SMILES) | IC50 [8] [µM] | IC50 [9] [µM] | IC50 [10] [µM]
1 | 8.32 | 25.1 | 39.8 | 47.4 |  |  |  |  |  |  | CC1=C(/C=C/C(C)=C/C=C/C(C)=C\C(=O)Nc2ccccc2)C(C)(C)CC=C1c1cccnc1 [Compound 35, (2Z,4E,6E,8E)-3,7-dimethyl-N-phenyl-9-(2,6,6-trimethyl-3-(pyridin-3-yl)cyclohexa-1,3-dien-1-yl)nona-2,4,6,8-tetraenamide] |  |  | 
2 | 1.9 | 2.88 | 13.5 | 1.41 |  |  |  | 126 to 128 |  |  | CC1=C(/C=C/C(C)=C/C=C/C(C)=C\C(=O)NCCc2ccc(O)cc2)C(C)(C)CCC1n1ccnc1 (stereo not drawn) [Compound 25, (2Z,4E,6E,8E)-9-(3-(1H-imidazol-1-yl)-2,6,6-trimethylcyclohex-1-en-1-yl)-N-(4-hydroxyphenethyl)-3,7-dimethylnona-2,4,6,8-tetraenamide] |  |  | 
3 |  |  |  |  |  |  |  | 124 to 126 |  |  | CC1=C(/C=C/C(C)=C/C=C/C(C)=C\C(=O)NCc2ccc(O)cc2)C(C)(C)CC=C1c1cccnc1 [Compound 36, (2Z,4E,6E,8E)-N-(4-hydroxybenzyl)-3,7-dimethyl-9-(2,6,6-trimethyl-3-(pyridin-3-yl)cyclohexa-1,3-dien-1-yl)nona-2,4,6,8-tetraenamide] |  |  | 
4 | 2.96 | 14.5 | 23.4 | 24 |  |  |  | 115 to 117 |  |  | CC1=C(/C=C/C(C)=C/C=C/C(C)=C\C(=O)NCCc2ccc(O)cc2)C(C)(C)CC=C1c1cncnc1 [Compound 40, (2Z,4E,6E,8E)-N-(4-hydroxyphenethyl)-3,7-dimethyl-9-(2,6,6-trimethyl-3-(pyrimidin-5-yl)cyclohexa-1,3-dien-1-yl)nona-2,4,6,8-tetraenamide] |  |  | 
5 | 8.75 | 26.9 | 50.1 | 42.2 |  |  |  | 110 to 112 |  |  | CC1=C(/C=C/C(C)=C/C=C/C(C)=C\C(=O)NCCc2ccc(O)cc2)C(C)(C)CC=C1c1cccnc1 [Compound 37, (2Z,4E,6E,8E)-N-(4-hydroxyphenethyl)-3,7-dimethyl-9-(2,6,6-trimethyl-3-(pyridin-3-yl)cyclohexa-1,3-dien-1-yl)nona-2,4,6,8-tetraenamide] |  |  | 
6 | 7.01 | 26.9 | 22.9 | 31 |  |  |  | 105 to 107 |  |  | CC1=C(/C=C/C(C)=C/C=C/C(C)=C\C(=O)Nc2ccccc2)C(C)(C)CC=C1c1cncnc1 [Compound 38, (2Z,4E,6E,8E)-3,7-dimethyl-N-phenyl-9-(2,6,6-trimethyl-3-(pyrimidin-5-yl)cyclohexa-1,3-dien-1-yl)nona-2,4,6,8-tetraenamide] |  |  | 
7 | 4.96 | 11.5 | 19.1 | 11.5 |  |  |  | 145 to 147 |  |  | CC1=C(/C=C/C(C)=C/C=C/C(C)=C\C(=O)NCc2ccc(O)cc2)C(C)(C)CC=C1c1cncnc1 [Compound 39, (2Z,4E,6E,8E)-N-(4-hydroxybenzyl)-3,7-dimethyl-9-(2,6,6-trimethyl-3-(pyrimidin-5-yl)cyclohexa-1,3-dien-1-yl)nona-2,4,6,8-tetraenamide] |  |  | 

Continued, compound first:

Row | Structure (SMILES) | IC50 [1] [µM] | IC50 [2] [µM] | IC50 [3] [µM] | IC50 [4] [µM] | IC50 [5] [µM] | IC50 [6] [µM] | IC50 [7] [µM] | melting point [°C] | fold more potent than Compound 16 (GI50, MCF-7) ([1]; versus Compound 16) [fold] | IC50 [11] [µM] | IC50 [8] [µM] | IC50 [9] [µM] | IC50 [10] [µM]
8 | CC1=C(/C=C/C(C)=C/C=C/C(C)=C\C(=O)Nc2ccccc2O)C(C)(C)CCC1n1ccnc1 (stereo not drawn) [Compound 18, (2Z,4E,6E,8E)-9-(3-(1H-imidazol-1-yl)-2,6,6-trimethylcyclohex-1-en-1-yl)-N-(2-hydroxyphenyl)-3,7-dimethylnona-2,4,6,8-tetraenamide] | 1.09 | 4.67 | 3.03 | 3.89 | 3.23 | 2.23 | 15.5 |  |  |  |  |  | 
9 | CC1=C(/C=C/C(C)=C/C=C/C(C)=C\C(=O)Nc2ccc(O)cc2)C(C)(C)CCC1n1ccnc1 (stereo not drawn) [Compound 17, (2Z,4E,6E,8E)-9-(3-(1H-imidazol-1-yl)-2,6,6-trimethylcyclohex-1-en-1-yl)-N-(4-hydroxyphenyl)-3,7-dimethylnona-2,4,6,8-tetraenamide] | 1.99 | 13.1 | 6.83 | 3.89 | 3.54 | 3.89 | 11.7 |  |  |  |  |  | 
10 | CC1=C(/C=C/C(C)=C/C=C/C(C)=C\C(=O)NCc2ccc(F)cc2)C(C)(C)CCC1n1ccnc1 (stereo not drawn) [Compound 23, (2Z,4E,6E,8E)-9-(3-(1H-imidazol-1-yl)-2,6,6-trimethylcyclohex-1-en-1-yl)-N-(4-fluorobenzyl)-3,7-dimethylnona-2,4,6,8-tetraenamide] | 1.93 | 1.41 | 2.45 | 5.5 |  |  |  | 93 to 95 |  |  |  |  | 
11 | CC1=C(/C=C/C(C)=C/C=C/C(C)=C/C(=O)Nc2ccc(O)cc2)C(C)(C)CCC1 [Compound 4-HPR, N-(4-hydroxyphenyl) retinamide, reference compound] | 4.65 | 11.1 | 6.02 | 3.98 |  |  |  |  |  |  | 2.69 | 3.23 | 3.54
12 | CC1=C(/C=C/C(C)=C/C=C/C(C)=C\C(=O)Nc2ccc(F)cc2)C(C)(C)CCC1n1ccnc1 (stereo not drawn) [Compound 19, (2Z,4E,6E,8E)-9-(3-(1H-imidazol-1-yl)-2,6,6-trimethylcyclohex-1-en-1-yl)-N-(4-fluorophenyl)-3,7-dimethylnona-2,4,6,8-tetraenamide] | 0.4 | 4.95 | 4.57 | 25.1 | 3.89 |  | 30.2 |  | ~4.8 |  |  |  | 
13 | CC(O)(CS(=O)(=O)c1ccc(F)cc1)C(=O)Nc1ccc(C#N)c(C(F)(F)F)c1 (stereo not drawn) [Casodex] |  |  |  |  |  |  |  |  |  |  | 2.61 | 3.81 | 9.15
14 | CC1=C(/C=C/C(C)=C/C=C/C(C)=C\C(=O)NCc2ccccc2)C(C)(C)CCC1n1ccnc1 (stereo not drawn) [Compound 21, (2Z,4E,6E,8E)-9-(3-(1H-imidazol-1-yl)-2,6,6-trimethylcyclohex-1-en-1-yl)-N-benzyl-3,7-dimethylnona-2,4,6,8-tetraenamide] | 9.77 | 5.88 | 7.24 | 10.7 |  |  |  |  |  | 5.88 to 10.7 |  |  | 
15 | CC1=C(/C=C/C(C)=C/C=C/C(C)=C\C(=O)NCc2cccc(F)c2)C(C)(C)CCC1n1ccnc1 (stereo not drawn) [Compound 24, (2Z,4E,6E,8E)-9-(3-(1H-imidazol-1-yl)-2,6,6-trimethylcyclohex-1-en-1-yl)-N-(3-fluorobenzyl)-3,7-dimethylnona-2,4,6,8-tetraenamide] | 1.81 | 1.65 | 2.45 | 5.5 |  |  |  |  |  |  |  |  | 
